Source: PubChem BioAssay (NCI)
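How tested: cells in 96-well plates exposed to compound for 48 hours at five concentrations. GI50: concentration for 50% inhibition of growth. The concentration for full growth arrest is given as TGI.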

Experiments:
Test in all cases: NCI-60 cell line screen, 48 h
[1] = test system: CCRF-CEM leukemia
[2] = test system: COLO 205 colon
[3] = test system: KM12 colon
[4] = test system: LOX IMVI melanoma
[5] = test system: MDA-MB-435
[6] = test system: NCI-H23 lung
[7] = test system: NCI-H460 lung
[8] = test system: OVCAR-3 ovarian
[9] = test system: OVCAR-8 ovarian
[10] = test system: SNB-75 CNS
[11] = test system: UACC-62 melanoma

Row | Structure (SMILES) | TGI [1] [µM] | TGI [2] [µM] | TGI [3] [µM] | TGI [4] [µM] | TGI [5] [µM] | TGI [6] [µM] | TGI [7] [µM] | TGI [8] [µM] | TGI [9] [µM] | TGI [10] [µM] | TGI [11] [µM] | GI50 [8] [µM] | GI50 [1] [µM] | GI50 [3] [µM] | GI50 [5] [µM] | GI50 [9] [µM] | GI50 [10] [µM] | GI50 [11] [µM]
1 | NS(=O)(=O)c1ccc(NNC(=O)c2cccc3c(=O)c4ccccc4[nH]c23)cc1 | > 100 | > 100 | > 100 | 89 | > 100 | > 100 | > 100 | > 100 | > 100 | > 100 | > 100 |  |  |  |  |  |  | 
2 | C1CNCCN2CCCNCCN(C1)CC2 | 37.9 | > 100 | > 100 | > 100 | > 100 | > 100 | > 100 | > 100 | > 100 | > 100 | > 100 |  |  |  |  |  |  | 
3 | Clc1cc2nc(C3CCCO3)[nH]c2cc1Cl (centres undefined) | > 100 | > 100 | > 100 | > 100 | > 100 | > 100 |  | > 100 | > 100 | > 100 | > 100 |  |  |  |  |  |  | 
4 | O=C1/C(=C/c2ccc(O)cc2)NC(=S)N1CN1CCCCC1 | > 100 | 56.4 | > 100 | > 100 | > 100 | > 100 |  | > 100 | > 100 | > 100 | > 100 |  |  |  |  |  |  | 
5 | CN(c1c(Cl)cccc1Cl)S(=O)(=O)c1ccccc1[N+](=O)[O-] |  | > 100 | > 100 | > 100 | > 100 | > 100 | > 100 | > 100 | > 100 | > 100 | > 100 |  |  |  |  |  |  | 
6 | COc1ccc(-c2cc(-c3ccccc3)n(C3OC(COC(C)=O)C(OC(C)=O)C(OC(C)=O)C3OC(C)=O)c(=S)c2C#N)cc1 (centres undefined) |  | 23.4 | 44.7 | > 100 | 19.4 | 47.7 | 22.2 | 23.5 | 19.7 | 19.2 | 16.4 |  |  |  |  |  |  | 
7 | Cc1nn2c(N)cc(=O)nc2nc1/C=C/c1ccc(N(C)C)cc1 | 2.41 | > 100 | > 100 | 22 | > 100 | > 100 | > 100 |  | > 100 |  | > 100 |  |  |  |  |  |  | 
8 | CN(C)c1cccc(-c2cc(=O)c3ccccc3[nH]2)c1 | > 100 | > 100 | > 100 | > 100 |  | > 100 | > 100 | > 100 | > 100 |  | > 100 | 42.1 |  |  |  |  |  | 
9 | COCCc1c(C)c(C#N)c2n(C)c3ccccc3n2c1=O |  | > 10 | > 10 | > 10 | > 10 | > 10 | > 10 | > 10 | > 10 | > 10 | > 10 |  |  |  |  |  |  | 
10 | CN(C)c1nc(N(C)C)nc(N(C)CN(C)c2ccccc2)n1 | > 100 |  | > 100 | > 100 |  | > 100 | > 100 | > 100 | > 100 | > 100 | > 100 |  |  |  |  |  |  | 
11 | COc1cc(/C=C2\C(=O)N(c3cccc(Cl)c3)C(c3ccccc3)S2(=O)=O)cc(OC)c1OC (centres undefined) | 71.8 | > 100 | > 100 | 97.2 | > 100 | > 100 | > 100 | > 100 | > 100 |  | > 100 |  |  |  |  |  |  | 
12 | ON=C1CCCCC(=NO)CCCC1 |  | > 100 | > 100 | > 100 | > 100 | > 100 | > 100 |  | > 100 | > 100 | > 100 |  |  |  |  |  |  | 
13 | O=C(NC(=O)c1cn(CCN2CCNCC2)c(=O)[nH]c1=O)OCc1ccccc1 | > 100 | > 100 | > 100 | > 100 |  | > 100 | > 100 | > 100 | > 100 | > 100 | > 100 |  |  |  |  |  |  | 
14 | CN1CCc2c(sc3nc(Nc4ccccc4)n(N)c(=O)c23)C1 | > 100 | > 100 | > 100 |  |  | > 100 | > 100 | > 100 | > 100 |  | > 100 |  |  |  |  |  |  | 
15 | CCN(CC)CCN1C(=O)c2cccc3c(-c4ccc5c(c4)ncn5C4CCCCC4)ccc(c23)C1=O | 11.6 |  | 3.2 |  | 3.22 |  |  | 3.64 | 4.62 | 2.4 | 3.03 | 1.73 | 1.43 | 1.52 | 1.68 | 1.75 | 1.05 | 1.56
16 | O=C1C=C2S[C@H]3C[C@]2(C=C1Br)c1c(c(O)c2c4c1=NCCC=4C=N2)N3 |  | 0.21 | 3.83 | 1.27 | 0.305 | 2.57 | 11.6 | 1.12 | 1.56 | 2.92 | 1.23 |  |  |  |  |  |  | 
17 | O=C(N/N=C(/COc1cccc(Cl)c1)N=Cc1ccncc1)c1ccncc1 | > 100 | > 100 | > 100 | > 100 | > 100 | > 100 | > 100 | > 100 | > 100 |  | > 100 |  |  |  |  |  |  | 
18 | Nn1c(CNc2ccc(-c3nnc(Nc4ccc(Cl)cc4)n3N)cc2)nnc1Nc1ccc(Cl)cc1 |  | > 100 | > 100 |  | > 100 | > 100 | > 100 |  |  | > 100 | > 100 |  |  |  |  |  |  | 
19 | CCCCCCc1nn2c(-c3ccc(C)cc3)nnc2s1 |  | > 100 | > 100 |  | > 100 | > 100 | > 100 | > 100 | > 100 | > 100 | > 100 |  |  |  |  |  |  | 
20 | CCOC(=O)C(Cc1ccc2c(c1)CCC2)(Cc1ccc2c(c1)CCC2)C(=O)OCC | > 100 |  |  | > 100 | > 100 | > 100 | > 100 | > 100 | > 100 | > 100 |  |  |  |  |  |  |  | 
21 | CSC1=N/C(=C\c2cccs2)C(=O)N1CN1CCOCC1 | > 100 | > 100 | > 100 | > 100 | > 100 | > 100 |  | > 100 | > 100 | > 100 | > 100 |  |  |  |  |  |  | 
22 | C=CCN1CCC(OC(=O)C(O)(/C=C\CC)C2CCCC2)CC1 (centres undefined) | > 100 | > 100 |  | > 100 | > 100 | > 100 |  | > 100 | > 100 | > 100 | > 100 |  |  |  |  |  |  | 
